4 molecules from patent US6245790A, “Oxazole compounds useful as PGE2 agonists and antagonists” (Fujisawa Pharmaceutical Co., Ltd., priority 1997, dated 2001) can be followed below.

SMILES strings stand for the structures. Bounds are passed on as bounds.

Assay [1] has as its target T1, prostanoide receptor subtype (human EP4) (Homo sapiens, UniProt P35408).
T1 construct: expressed in transfected cells; host or cells: COS-7
Nature of the assay: Binding assay using expression of prostanoide receptor subtype ([3H]-PGE2 competition, COS-7 membrane fraction). As to conditions: compound at 10 μM, 1 hour at 30° C., COS-7 cells transfected human EP4. How it is done:
Binding Assay Using Expression of Prostanoide Receptor Subtype
The membrane fraction was prepared using COS-7 cells transfected prostanoide receptor subtype (human EP4).
The Standard assay mixture contained membrane fraction, [^3 H]-PGE2 in final volume of 0.25 ml was incubated for 1 hour at 30° C. The reaction was terminated by that the mixture was rapidly filtered through a glass filter (GF/B). Then the filter was washed by 4 ml of ice-cold buffer at two times. The radioactivity associated with the filter was measured by liquid scintillation counting.
In the experiment for competition of specific [^3 H]-PGE2 was added at a concentration of 10 μM. The following buffer was used in all reactions.
Buffer: 20 mM Mes (pH 6.0), 1 mM EDTA, 10 mM MgCl2

A further assay deals with Mouse B Lymphocytes. Nature of the assay: Effect on PGE2-induced IgE and IgG1 secretion in mouse B lymphocytes (LPS and IL-4, ELISA). Particulars: + 10^-5 M Test Compound, LPS and IL-4, 6 days, Mean ± S.E.M. (n = 4). The assay is classed as cell-based, mouse (BDF1). The procedure:
Effect on IgE and IgG1 Secretion in Mouse B Lymphocytes
Inhibitory properties of a test compound against PGE2 -induced IgE and IgG1 secretion in isolated resting B lymphocytes of mice were tested. Resting mouse B lymphocytes were isolated from spleens of 12-week-old BDF1 male mice (Clea Japan Inc.) using adherent cell depletion, negative selection by FITC-anti-Thy 1.2 (30H12), FITC-anti-CD4 (GK1.5), FITC-anti-CD11b (M1/70) and FITC-anti-CD8a (5.-6.7) (Pharmingen) with anti-FITC Ab coating magnetic beads (PerSpective Daiagnostics) and Percoll gradient (Pharmacia). Resting B lymphocytes were cultured in flat-bottomed96-well microtiter plates (Becton Dickinson) at 1×10^6 cells per ml and preincubated with a test compound or DMSO control for 30 minutes. Then PGE2 were added at 10^-6 M. After 1 hour, LPS and IL-4 were added and incubated at 37° C. in a humidified atmosphere with 5% CO2. After 6 days, supernatants were collected and IgE and IgG1 were measured by the ELISA.
(In an ELISA, binding on a coated surface is turned into a signal by an enzyme label.)

T1 sequence (P35408 whole entry): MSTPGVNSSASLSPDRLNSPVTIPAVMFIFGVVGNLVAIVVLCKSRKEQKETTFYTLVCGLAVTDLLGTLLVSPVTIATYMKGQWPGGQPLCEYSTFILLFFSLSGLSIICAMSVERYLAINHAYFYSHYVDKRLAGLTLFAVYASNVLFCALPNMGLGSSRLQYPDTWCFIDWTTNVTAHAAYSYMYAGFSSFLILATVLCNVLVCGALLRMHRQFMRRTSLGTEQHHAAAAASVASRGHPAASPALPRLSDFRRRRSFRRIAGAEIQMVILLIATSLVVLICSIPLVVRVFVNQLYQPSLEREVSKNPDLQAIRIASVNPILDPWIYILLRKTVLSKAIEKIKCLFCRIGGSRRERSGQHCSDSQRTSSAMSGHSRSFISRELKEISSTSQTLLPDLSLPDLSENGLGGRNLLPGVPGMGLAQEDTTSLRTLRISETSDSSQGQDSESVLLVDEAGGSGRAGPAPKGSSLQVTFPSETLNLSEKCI

Molecule `COc1cccc(C[C@@H]2CCC=C2c2nc(-c3ccccc3)c(-c3ccccc3)o2)c1` [Test Compound (1), (S)-2-(4,5-Diphenyloxazol-2-yl)-1-(3-methoxybenzyl)-2-cyclopentene] had an inhibition at 10 µM in assay [1] greater than 80%.
Take `O=C([O-])c1cccc(C[C@@H]2CCCC=C2c2nc(-c3ccccc3)c(-c3ccccc3)o2)c1.[Na+]` [Test Compound, Sodium (S)-3-{[2-(4,5-diphenyloxazol-2-yl)-2-cyclohexen-1-yl]methyl}benzoate]: the IgG1 secretion in the assay with Mouse B Lymphocytes (+ 10^-6 M PGE2, # p < 0.01 v.s. Control (-PGE2)) was found to be 1607.6 ± 150.9 ng/mL; in the assay on Mouse B Lymphocytes (-PGE2), 1053.0 ± 176.2 ng/mL. Also, the IgE secretion stood at 37.0 ± 7.0 ng/mL in the assay on Mouse B Lymphocytes (+ 10^-6 M PGE2, * p < 0.01 v.s. Control (+10^-6 M PGE2)) and 21.2 ± 5.7 ng/mL in the assay on Mouse B Lymphocytes (-PGE2).
Molecule `O=C(O)c1ccc(C[C@@H]2CCCC=C2c2nc(-c3ccccc3)c(-c3ccccc3)o2)cc1` [Test Compound (2), (S)-4-{[2-(4,5-Diphenyloxazol-2-yl)-2-cyclohexen-1-yl]-methyl}benzoic acid] returned an inhibition at 10 µM in assay [1] greater than 80%.
On to `NC(=O)COc1cccc(C[C@@H]2CCCC=C2c2nc(-c3ccccc3)c(-c3ccccc3)o2)c1` [Test Compound (3), (S)-{3-{[2-(4,5-Diphenyloxazol-2-yl)-2-cyclohexen-1-yl]-methyl}phenoxy}actamide], for which, in assay [1], the inhibition at 10 µM was greater than 80%.

As a reminder, the inhibition is how much of the control response was suppressed. Lower therefore signals little suppression.
